Data published in patent US20100008874A1, “SUBSTITUTED PYRIMIDINES, PROCESS FOR THEIR PRODUCTION AND THEIR USE AS EFFECTIVE ABSORBENTS OF UV IRRADIATION” (YISSUM RESEARCH DEVELOPMENT COMPANY, priority 2006, published 2010).
Where two headings read alike, the source gives them in different places. Marks after values point to notes of the source that are not given here. One block for each molecule: values may come before it.

Key:
[1] = UV absorption spectrum (spectral properties); type: physicochemical; details: footnote b: this work
[2] = Autoxidation rate in air-saturated phosphate buffer, followed spectrophotometrically; type: physicochemical; details: air saturated 0.05M phosphate buffer pH 7.0, 1 mM EDTA, 25° C., [Pyrimidine] = 2.4 × 10^−5 M
Experimental: The autoxidation rate was measured in air-saturated buffer phosphate solutions 0.05 M at pH 7 and 25° C. The solutions contained 1 mM EDTA to minimize catalysis of the oxidation by trace metallic cations. The rate of autoxidation was measured spectrophotometrically by following the decrease of the UV absorbance of the pyrimidines at their respective λ max (Table 1).
This is probably the reason why there was no transient appearance of an absorption maximum around 240-255 nm which is assumed to be due to the intermediacy of oxidized pyrimidine B (Scheme 1), and was found in the autoxidation of isouramil, divicine and related systems. The decrease in the absorbance of 8a-c, followed a reasonably pseudo first order reaction in the pyrimidine concentration (the dissolved oxygen concentration was at least 13 times higher). However, it was found (Winterbourn, C. C.; Cowden, W. B.; Sutton, H. Biochem. Pharmacol. 1989, 38, 611-618) that the reaction mechanism is complex and involves radical intermediates and chain reactions and that the dependency on the pyrimidine concentration is far from simple. Therefore, in accordance with the present invention a different approach was adapted that uses the measured initial reaction rates for checking the quantitative dependency of the oxidation rate on the electron releasing power of the substituent in the C2 position. Table 1 also contains the initial rates for the reactions of isouramil and divicine (8d and 8e) calculated from Winterbourn, C. C.; Cowden, W. B.; Sutton, H. Biochem. Pharmacol. 1989, 38, 611-618; (aerated 0.05M phosphate buffer, pH 7, 23° C., 50 nM DTPA and similar to our pyrimidine concentrations) using ΔH of 60.2 kJ/mole (Chevion et al.^5a).

[3] = footnote d: reference; cited from earlier work
[4] = calculated from literature (aerated 0.05M phosphate buffer, pH 7, 23° C., 50 nM DTPA) using ΔH of 60.2 kJ/mole; cited from earlier work
[5] = test system: murine erythroleukemic cells; details: cited from earlier work
[6] = test system: tumor necrosis factor (TNF); details: in-vitro and in-vivo; cited from earlier work

Structure (SMILES): Nc1nc[nH]c(=O)c1O [H, 6-Amino-5-hydroxypyrimidin-4(3H)-one]
melting point: > 300 °C
ε at λmax [1]: 13000
λmax [1]: 274 nm
Initial rate (autoxidation) [2]: 0.00087^c μM/sec

Structure (SMILES): Nc1nc(O)[nH]c(=O)c1O [OH, 6-amino-2,5-dihydroxypyrimidin-4-one]
ε at λmax [3]: 14100
λmax [3]: 280 nm
Initial rate (autoxidation) [4]: 0.067^e μM/sec

Structure (SMILES): CSc1nc(N)c(O)c(=O)[nH]1 [SCH3, 6-Amino-5-hydroxy-2-(methylthio)pyrimidin-4-(3H)-one]
ε at λmax [1]: 10800
λmax [1]: 286 nm
Initial rate (autoxidation) [2]: 0.0097^c μM/sec

Structure (SMILES): O=c1[nH]c(S)ncc1O [6c, 5-Hydroxy-2-mercapto-3H-pyrimidin-4-one]
melting point: > 300 °C

Structure (SMILES): O=c1[nH]cnc(N=Nc2ccccc2)c1O [7b, 5-Hydroxy-6-phenylazo-3H-pyrimidine-4-one]
melting point: 244 to 245 °C

Structure (SMILES): Nc1nc(N)c(O)c(O)n1 [NH2, 2,6-diamino-5-hydroxypyrimidin-4-one]
cytotoxicity in combination with carboplatin [5]: synergistic cytotoxicity
effect on lipopolysaccharide-induced release of TNF [6]: enhances
ε at λmax [3]: 9800
λmax [3]: 285 nm
Initial rate (autoxidation) [4]: 0.061^e μM/sec

Structure (SMILES): CSc1nc(N=Nc2ccccc2)c(O)c(=O)[nH]1 [7c, 5-Hydroxy-2-methylsulfanyl-6-phenylazo-3H-pyrimidin-4-one]
melting point: 213 to 215 °C

Structure (SMILES): Cc1nc(N=Nc2ccccc2)c(O)c(=O)[nH]1 [7a, 5-Hydroxy-2-methyl-6-phenylazo-3H-pyrimidin-4-one]
melting point: 243 to 245 °C

Further lines, with some results ahead:

melting point: > 300 °C
Structure (SMILES): Cc1ncc(O)c(=O)[nH]1 [6a, 5-Hydroxy-2-methylpyrimidin-4(3H)-one]

melting point: > 300 °C
ε at λmax [1]: 16200
λmax [1]: 275 nm
Structure (SMILES): Cc1nc(N)c(O)c(=O)[nH]1 [CH3, 6-Amino-5-hydroxy-2-methylpyrimidin-4(3H)-one]
Initial rate (autoxidation) [2]: 0.0015^c μM/sec

melting point: 149 to 151 °C
Structure (SMILES): Cc1ncc(OC2CCCCO2)c(=O)[nH]1 (centres unmarked) [5a, 2-Methyl-5-(tetrahydro-2H-pyran-2-yloxy)pyrimidin-4(3H)-one]

melting point: > 300 °C
Structure (SMILES): O=c1[nH]c(S)ncc1OC1CCCCO1 (centres unmarked) [5c, 2-Mercapto-5-(tetrahydro-pyran-2-yloxy)-3H-pyrimidin-4-one]
